These results are taken from patent US20180251431A1 (VERTEX PHARMACEUTICALS INCORPORATED, priority 2016, published 2018).

The assay concerns HEK293 cells. The assay is described as follows: HEK293 VLCFA-LPC IC50 determination (13C-labeled C26:0 LPC by UHPLC/MS). It is filed as cell-based, human. Particulars: Homo sapiens, HEK293, HEK293 cells; average of one or more replicates; read-out: Average HEK293 IC50. In short, it runs like this: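 Suspension HEK293 cells (final 0.5 million/mL after mixing with equal volume) incubated 48 hours with compound plus 13C-acetate (1.0 mg/mL in added media), shaking at 37° C. Lipids extracted with hexane/isopropanol or methanol, C13:0 LPC standard. UHPLC/MS of 13C-labeled C26:0 LPC (638.500/104.100 m/z); IC50 by four-parameter fit.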
For `N#Cc1ccccc1C1(C(=O)Nc2ccn(-c3ccnc(F)c3)n2)CC1` [Compound 247, 1-(2-cyanophenyl)-N-[1-(2-fluoro-4-pyridyl)pyrazol-3-yl]cyclopropanecarboxamide], the 50% inhibitory concentration (IC50) is 2500 nM. For the molecule `Cc1cc(C)cc(C2(C(=O)Nc3ccn(-c4ccnc(F)c4)n3)CC2)c1` [Compound 248, 1-(3,5-dimethylphenyl)-N-[1-(2-fIuoro-4-pyridyl)pyrazol-3-yl]cyclopropanecarboxamide], the IC50 was over 5000 nM. As for `COc1ccc(C2(C(=O)Nc3ccn(-c4ccnc(F)c4)n3)CC2)cc1` [Compound 249, N-[1-(2-fluoro-4-pyridyl)pyrazol-3-yl]-1-(4-methoxyphenyl)cyclopropanecarboxamide], the IC50 was 640 nM. Consider `COc1cccc(C2(C(=O)Nc3ccn(-c4ccnc(F)c4)n3)CC2)c1` [Compound 250, N-[1-(2-fluoro-4-pyridyl)pyrazol-3-yl]-1-(3-methoxyphenyl)cyclopropanecarboxamide], for which the IC50 worked out at 170 nM. Consider `O=C(Nc1ccn(-c2ccnc(F)c2)n1)C1(c2ccccc2Cl)CC1` [Compound 251, 1-(2-chlorophenyl)-N-[1-(2-fluoro-4-pyridyl)pyrazol-3-yl]cyclopropanecarboxamide], for which the IC50 amounted to 110 nM. The same measure for `Cc1ccccc1C1(C(=O)Nc2ccn(-c3ccnc(F)c3)n2)CC1` [Compound 252, N-[1-(2-fluoro-4-pyridyl)pyrazol-3-yl]-1-(o-tolyl)cyclopropanecarboxamide]: 400 nM; for `O=C(Nc1ccn(-c2ccnc(F)c2)n1)C1(c2ccc(Cl)cc2Cl)CC1` [Compound 253, 1-(2,4-dichlorophenyl)-N-[1-(2-fluoro-4-pyridyl)pyrazol-3-yl]cyclopropanecarboxamide]: 120 nM. With `O=C(Nc1ccn(-c2ccnc(F)c2)n1)C1(c2cccc(F)c2)CC1` [Compound 254, 1-(3-fluorophenyl)-N-[1-(2-fluoro-4-pyridyl)pyrazol-3-yl]cyclopropanecarboxamide] the figure was 190 nM.

Consider `O=C(Nc1ccn(-c2ccnc(F)c2)n1)C1(c2ccc(F)cc2)CC1` [Compound 255, 1-(4-fluorophenyl)-N-[1-(2-fluoro-4-pyridyl)pyrazol-3-yl]cyclopropanecarboxamide], for which the half-inhibitory concentration (IC50) came to 100 nM. For the molecule `O=C(Nc1ccn(-c2ccnc(F)c2)n1)C1(c2cccc(Cl)c2)CC1` [Compound 256, 1-(3-chlorophenyl)-N-[1-(2-fluoro-4-pyridyl)pyrazol-3-yl]cyclopropanecarboxamide], the half-maximal inhibitory concentration (IC50) was 300 nM. With `O=C(Nc1ccn(-c2ccnc(F)c2)n1)C1(c2ccc(Cl)cc2)CC1` [Compound 257, 1-(4-chlorophenyl)-N-[1-(2-fluoro-4-pyridyl)pyrazol-3-yl]cyclopropanecarboxamide] the figure was 340 nM; with `[2H]c1nc(C)nc([2H])c1-n1ccc(NC(=O)C2(c3ccccc3F)CC2)n1` [Compound 258, N-[1-(4,6-dideuterio-2-methyl-pyrimidin-5-yl)pyrazol-3-yl]-1-(2-fluorophenyl)cyclopropanecarboxamide], over 5000 nM. As to `COc1cc(-n2ccc(NC(=O)C3(c4ccccc4F)CC3)n2)ccn1` [Compound 259, 1-(2-fluorophenyl)-N-(1-(2-methoxypyridin-4-yl)-1H-pyrazol-3-yl)cyclopropane-1-carboxamide], the concentration for half-maximal inhibition (IC50) was 51 nM. With `O=C(Nc1ccn(-c2ccnc(F)c2)n1)C1(c2cc(F)ccc2F)CC1` [Compound 260, 1-(2,5-difluorophenyl)-N-[1-(2-fluoro-4-pyridyl)pyrazol-3-yl]cyclopropanecarboxamide] the figure was 170 nM; with `O=C(Nc1ccn(-c2ccccc2)n1)C1(c2cc(F)ccc2F)CC1` [Compound 261, 1-(2,5-difluorophenyl)-N-(1-phenylpyrazol-3-yl)cyclopropanecarboxamide], 160 nM; with `O=C(Nc1ccn(-c2ccnc(F)c2)n1)C1(c2ccc(Cl)cc2F)CC1` [Compound 262, 1-(4-chloro-2-fluoro-phenyl)-N-[1-(2-fluoro-4-pyridyl)pyrazol-3-yl]cyclopropanecarboxamide], 300 nM. In the case of `O=C(Nc1ccn(-c2ccccc2)n1)C1(c2ccc(Cl)cc2F)CC1` [Compound 263, 1-(4-chloro-2-fluoro-phenyl)-N-(1-phenylpyrazol-3-yl)cyclopropanecarboxamide], the half-maximal inhibitory concentration (IC50) is over 5000 nM. Consider `O=C(Nc1ccn(-c2ccnc(F)c2)n1)C1(c2cc(Cl)ccc2F)CC1` [Compound 264, 1-(5-chloro-2-fluoro-phenyl)-N-[1-(2-fluoro-4-pyridyl)pyrazol-3-yl]cyclopropanecarboxamide], for which the IC50 was found to be 190 nM. For the molecule `O=C(Nc1ccn(-c2ccccc2)n1)C1(c2cc(Cl)ccc2F)CC1` [Compound 265, 1-(5-chloro-2-fluoro-phenyl)-N-(1-phenylpyrazol-3-yl)cyclopropanecarboxamide], the IC50 came to 240 nM.

`O=C(Nc1ccn(-c2ccnc(F)c2)n1)C1(c2c(F)cccc2F)CC1` [Compound 266, 1-(2,6-difluorophenyl)-N-[1-(2-fluoro-4-pyridyl)pyrazol-3-yl]cyclopropanecarboxamide]: the IC50 turned out to be 17 nM. The same measure for `O=C(Nc1ccn(-c2ccccc2)n1)C1(c2c(F)cccc2F)CC1` [Compound 267, 1-(2,6-difluorophenyl)-N-(1-phenylpyrazol-3-yl)cyclopropanecarboxamide]: 13 nM; for `O=C(Nc1ccn(-c2ccnc(F)c2)n1)C1(c2cccc(F)c2F)CC1` [Compound 268, 1-(2,3-difluorophenyl)-N-[1-(2-fluoro-4-pyridyl)pyrazol-3-yl]cyclopropanecarboxamide]: 140 nM.

As to `O=C(Nc1ccn(-c2ccccc2)n1)C1(c2cccc(F)c2F)CC1` [Compound 269, 1-(2,3-difluorophenyl)-N-(1-phenylpyrazol-3-yl)cyclopropanecarboxamide], the IC50 amounted to 98 nM.

For `O=C(Nc1ccn(-c2ccnc(F)c2)n1)C1(c2cc(F)cc(F)c2)CC1` [Compound 270, 1-(3,5-difluorophenyl)-N-[1-(2-fluoro-4-pyridyl)pyrazol-3-yl]cyclopropanecarboxamide], the half-inhibitory concentration (IC50) is 280 nM. Turning to `O=C(Nc1ccn(-c2ccccc2)n1)C1(c2cc(F)cc(F)c2)CC1` [Compound 271, 1-(3,5-difluorophenyl)-N-(1-phenylpyrazol-3-yl)cyclopropanecarboxamide], the IC50 amounted to 650 nM. With `Cc1ccc(F)c(C2(C(=O)Nc3ccn(-c4ccnc(F)c4)n3)CC2)c1Cl` [Compound 272, 1-(2-chloro-6-fluoro-3-methyl-phenyl)-N-[1-(2-fluoro-4-pyridyl)pyrazol-3-yl]cyclopropanecarboxamide], the IC50 is 460 nM.

In the case of `O=C(Nc1ccn(-c2ccnc(F)c2)n1)C1(c2c(F)cccc2Cl)CC1` [Compound 274, 1-(2-chloro-6-fluorophenyl)-N-(1-(2-fluoropyridin-4-yl)-1H-pyrazol-3-yl)cyclopropane-1-carboxamide], the concentration for half-maximal inhibition (IC50) worked out at 37 nM.

`O=C(Nc1ccn(-c2ccccc2)n1)C1(c2c(F)cccc2Cl)CC1` [Compound 275, 1-(2-chloro-6-fluoro-phenyl)-N-(1-phenylpyrazol-3-yl)cyclopropanecarboxamide]: the IC50 is 50 nM.

For the molecule `[2H]C1([2H])C([2H])([2H])C1(C(=O)Nc1ccn(-c2ccnc(F)c2)n1)c1ccccc1F` [Compound 276, 2,2,3,3-tetradeuterio-1-(2-fluorophenyl)-N-[1-(2-fluoro-4-pyridyl)pyrazol-3-yl]cyclopropanecarboxamide], the 50% inhibitory concentration (IC50) worked out at 11 nM.

As for `O=C(Nc1ccn(-c2ccnc(F)c2)n1)C1(c2ncccc2F)CC1` [Compound 277, 1-(3-f1uoro-2-pyridyl)-N-[1-(2-fluoro-4-pyridyl)pyrazol-3-yl]cyclopropanecarboxamide], the IC50 stood at 120 nM. `O=C(Nc1ccn(-c2ccncn2)n1)C1(c2ccncc2F)CC1` [Compound 278, 1-(3-fluoro-4-pyridyl)-N-(1-pyrimidin-4-ylpyrazol-3-yl)cyclopropanecarboxamide]: the half-maximal inhibitory concentration (IC50) was over 5000 nM. In the case of `O=C(Nc1ccn(-c2ccncn2)n1)C1(c2ncccc2F)CC1` [Compound 279, 1-(3-fluoro-2-pyridyl)-N-(1-pyrimidin-4-ylpyrazol-3-yl)cyclopropanecarboxamide], the IC50 is 520 nM. With `O=C(Nc1ccn(-c2ccccc2)n1)C1(c2ccncc2F)CC1` [Compound 280, 1-(3-fluoro-4-pyridyl)-N-(1-phenylpyrazol-3-yl)cyclopropanecarboxamide] the figure was 770 nM; with `O=C(Nc1ccn(-c2ccccc2)n1)C1(c2ncccc2F)CC1` [Compound 281, 1-(3-fluoro-2-pyridyl)-N-(1-phenylpyrazol-3-yl)cyclopropanecarboxamide], 58 nM; with `Cc1ccnn1CC(=O)Nc1ccn(-c2ccnc(F)c2)n1` [Compound 282, N-[1-(2-fluoro-4-pyridyl)pyrazol-3-yl]-2-(5-methylpyrazol-1-yl)acetamide], over 2000 nM. In the case of `O=C(Cn1cccn1)Nc1ccn(-c2ccnc(F)c2)n1` [Compound 283, N-[1-(2-fluoro-4-pyridyl)pyrazol-3-yl]-2-pyrazol-1-yl-acetamide], the IC50 was over 5000 nM. The same measure for `O=C(Nc1ccn(-c2ccnc(F)c2)n1)C1(c2ccc3c(c2)OC(F)(F)O3)CC1` [Compound 285, 1-(2,2-difluoro-1,3-benzodioxol-5-yl)-N-[1-(2-fluoro-4-pyridyl)pyrazol-3-yl]cyclopropanecarboxamide]: 40 nM; for `O=C(Cn1ccnc1)Nc1ccn(-c2ccnc(F)c2)n1` [Compound 286, N-[1-(2-fluoro-4-pyridyl)pyrazol-3-yl]-2-imidazol-1-yl-acetamide]: 5000 nM. `O=C(Cn1cccn1)Nc1ccn(-c2ccccc2)n1` [Compound 289, N-(1-phenylpyrazol-3-yl)-2-pyrazol-1-yl-acetamide]: the half-inhibitory concentration (IC50) was over 5000 nM.
